From PMC6019688 (Redox Biology, 2018)

Molecular target: mitochondrial respiratory chain complex I (Homo sapiens, UniProt O75251+O75306+P03886)
Test: spectrophotometric NADH:decylubiquinone oxidation in DU145 homogenate
Format: cell-based

Chain of mitochondrial respiratory chain complex I (P03886 whole entry): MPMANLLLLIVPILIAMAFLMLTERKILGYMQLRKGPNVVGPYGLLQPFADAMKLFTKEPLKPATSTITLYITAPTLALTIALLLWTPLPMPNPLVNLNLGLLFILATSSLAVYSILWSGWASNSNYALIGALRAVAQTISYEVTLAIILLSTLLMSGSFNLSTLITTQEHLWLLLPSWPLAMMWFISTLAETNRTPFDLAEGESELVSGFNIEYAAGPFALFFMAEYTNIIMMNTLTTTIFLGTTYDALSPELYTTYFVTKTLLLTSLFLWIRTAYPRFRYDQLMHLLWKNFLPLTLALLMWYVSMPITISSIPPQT
Chain of mitochondrial respiratory chain complex I (O75306 34-463): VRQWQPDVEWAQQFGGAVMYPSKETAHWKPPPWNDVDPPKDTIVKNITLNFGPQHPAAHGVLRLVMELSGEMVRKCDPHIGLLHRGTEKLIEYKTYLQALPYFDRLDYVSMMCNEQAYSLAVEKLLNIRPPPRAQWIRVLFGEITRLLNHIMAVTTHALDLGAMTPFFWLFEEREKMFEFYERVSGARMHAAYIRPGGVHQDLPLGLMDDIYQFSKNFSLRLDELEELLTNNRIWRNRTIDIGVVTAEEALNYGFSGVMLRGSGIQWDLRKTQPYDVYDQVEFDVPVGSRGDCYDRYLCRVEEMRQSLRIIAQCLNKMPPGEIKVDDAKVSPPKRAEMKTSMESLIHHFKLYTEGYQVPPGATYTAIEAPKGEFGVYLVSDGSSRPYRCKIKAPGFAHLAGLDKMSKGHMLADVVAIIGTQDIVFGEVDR
Chain of mitochondrial respiratory chain complex I (O75251 39-213): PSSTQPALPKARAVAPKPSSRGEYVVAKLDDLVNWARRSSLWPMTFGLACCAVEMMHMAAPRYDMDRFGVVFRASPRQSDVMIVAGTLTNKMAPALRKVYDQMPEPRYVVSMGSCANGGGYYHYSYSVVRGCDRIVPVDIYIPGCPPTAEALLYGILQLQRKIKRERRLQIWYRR

## CCCCN1CCCC[C@H]1C(=O)Nc1c(C)cccc1C [levobupivacaine]
  Ki: 600 µM
